Experimental data reported in article PMC6445123 (Scientific Reports, 2019).
Residue numbers refer to the chain shown, from its start. Names may count otherwise. One block for each molecule: values may come before it.

Tests used:
[1] = target: T1, recombinant active Casp6 (Homo sapiens, UniProt P55212, INS179NQTEKLDTNITEVD); assay: Colorimetric Ac-VEID-pNA cleavage assay; type: biochemical; conditions: 200 µM Ac-VEID-pNA, 200 nM Casp6
T1 construct: generating mainly large subunit with a linker (LS-L), small subunit (SS), and a minor amount of large subunit (LS); His (C); made in house; host or cells: E. coli BL21(DE3)pLysS
T1 sequence (P55212 24-193 limits assumed): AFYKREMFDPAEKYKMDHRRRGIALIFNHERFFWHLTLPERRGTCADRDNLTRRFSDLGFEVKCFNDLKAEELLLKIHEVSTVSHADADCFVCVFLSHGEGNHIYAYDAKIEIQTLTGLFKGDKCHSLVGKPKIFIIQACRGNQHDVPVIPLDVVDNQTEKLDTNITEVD
T1 sequence (P55212 194-293 limits assumed): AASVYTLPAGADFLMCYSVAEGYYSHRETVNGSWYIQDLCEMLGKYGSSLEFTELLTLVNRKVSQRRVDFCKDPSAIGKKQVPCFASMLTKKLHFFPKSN
Description: (§1) To assess the potency of in silico hits, a fluorescence-based Ac-VEID-AFC cleavage assay was used to measure recombinant active Casp6 reaction rate in the absence or presence of 100 µM concentration of compounds. A 30% inhibition cut off was arbitrarily chosen for further investigation of putative inhibitors. […] AFC signal interference by compound intrinsic fluorescence was ruled out (Fig. S4). Casp6 inhibition was confirmed for seven compounds (C7, C13, C14, S2, S10, S11 and S13) using a colorimetric Ac-VEID-pNA cleavage assay (Table 2, Fig. S3).
(§2) In fluorescence-based Casp6 activity assay, 10 µM Ac-VEID-AFC was added to 20 nM Casp6 in SB with 100 μM compound and 1% dimethyl sulfoxide (DMSO), and reaction rate was measured for 20 min at 37 °C as above. Compound potency was calculated by normalising Ac-VEID-AFC cleavage rate to 1% DMSO control. In colorimetric Casp6 activity assay, 200 µM Ac-VEID-pNA (N-acetyl-Val-Glu-Ile-Asp-p-nitroanilide, Enzo Life Sciences) was added to 200 nM Casp6 in SB with 100 μM compound, and Ac-VEID-pNA cleavage rate was measured at 37 °C for 30 min in clear 96-well plate (Sartstedt, Nümbrecht, Germany) using Synergy H4 plate reader at 405 nm. Absorbance was converted to the released pNA amount based on a standard curve of 0–250 µM pNA. Cleavage rates were calculated from the linear assay phase and were normalised to 1% DMSO control. In Casp6-C163A cleavage assay, 0.5 ng/µl Casp6-WT was preincubated with 100 µM inhibitor, 5 µM Q-VD-OPh or 1% DMSO in SB (30 min, RT), followed by transfer on ice, addition of 0.5 µg/µl Casp6-C163A, and incubation (37 °C, 5, 10 and 15 min). Reactions were stopped by adding SDS-PAGE sample buffer (62.5 mM Tris pH 6.8, 2% SDS, 0.1 M DTT, 0.01% Bromphenol Blue, 10% glycerol) and heating (5 min, 95 °C). Samples (2 µl) were analysed on 15% SDS-PAGE gels, proteins were stained with Coomassie blue, and gels were de-stained with 10% acetic acid. The intensities of protein bands were quantified from scanned gels using ImageJ. The band intensity of Casp6-C163A without a prodomain was plotted against the time and the Casp6-C163A cleavage rates were calculated from the slopes of linear plots. The % activity of Casp6-WT in the presence of inhibitors was calculated relative to DMSO control.

[2] = target: T2, recombinant active Casp6 (Casp6-WT) (Homo sapiens, UniProt P55212, INS179NQTEKLDTNITEVD); assay: Fluorescence-based Ac-VEID-AFC cleavage assay (Casp6 activity, IC50 determination); type: biochemical; conditions: 10 µM Ac-VEID-AFC; for % Inhibition with 100 µM compound (fluorescence assay): 20 nM Casp6, relative to 1% DMSO control; for IC50: fluorescence assay, 20 nM Casp6 active sites, read-out: IC50
T2 construct: generating mainly large subunit with a linker (LS-L), small subunit (SS), and a minor amount of large subunit (LS); His (C); made in house; host or cells: E. coli BL21(DE3)pLysS
T2 sequence (P55212 24-193 limits assumed): T1 sequence (P55212 24-193 limits assumed)
T2 sequence (P55212 194-293 limits assumed): T1 sequence (P55212 194-293 limits assumed)
Description: as §1
(§3) Casp6 active sites were quantified using zVAD-FMK (N-benzyloxycarbonyl-Val-Ala-Asp-(O-methyl)-fluoromethylketone, MP Biomedicals, Santa Ana, CA, USA)[51],[64]. Casp6 activity was measured in Stennicke’s buffer (SB: 20 mM piperazine-N,N′-bis-(2-ethanesulfonic acid) pH 7.2, 100 mM NaCl, 10 mM DTT, 1 mM EDTA, 0.1% 3-[(3-cholamidopropyl)-dimethylammonio]-2-hydroxy-1-propanesulfonic acid, 10% sucrose)[65] using 40 µM Ac-VEID-AFC (Ac-Val-Glu-Ile-Asp-7-Amino-4-trifluoromethylcoumarin, Enzo Life Sciences, Farmingdale, NY, USA)[64] and 10-250 nM active site titrated Casp6. Reactions were initiated by Ac-VEID-AFC addition and followed for 20 min at 37 °C in a black clear bottom 96-well microplate (Costar, Corning, NY, USA) in Synergy H4 Hybrid instrument (BioTek, Winooski, VT, USA) with excitation/emission at 380/505 nm. Released AFC was calculated from AFC standard curve (0-25 µM). Casp6 VEIDase activity (released pmol AFC/min) was calculated from the initial linear reaction part. Ac-VEID-AFC hydrolysis initial velocities were measured with 10 nM active-site titrated Casp6 and […] Ac-VEID-AFC. Initial velocities v versus substrate concentration [S] were fit to a rectangular hyperbola using Michaelis-Menten equation in GraphPad Prism 5 (GraphPad Software, La Jolla, CA, USA).
as §2
IC50 values were determined against 20 nM Casp6 active sites in fluorescence-based Casp6 activity assay with 10 µM Ac-VEID-AFC and 1 nM-500 µM inhibitor. IC50 was calculated with GraphPad Prism 5 by a nonlinear regression fit for log inhibitor vs relative Casp6 activity (% DMSO control) using a Hill slope of – 1, and top and bottom constraints of 100 and 0, respectively.

[3] = target: the molecule itself; assay: crystal structure; apo, fully processed Casp6 variant; crystals from 100 mM sodium acetate pH 4.6, 2 M sodium chloride, hanging drop vapour diffusion at 22 °C
[4] = target: T3, Casp6-E35K large subunit with linker (LS-L) (human, UniProt P55212 24-193, E35K); assay: as above; conditions: both partners purified
T3 construct: human Caspase-6, large subunit with linker (LS-L) left after complete self-processing at TETD23 and TEVD193; a minor amount is also cut at DVVD179 (LS); rare natural SNP variant E35K; source: E. coli BL21(DE3)pLysS, self-processed from full-length Casp6-E35K, purified
T3 sequence (looked up): T1 sequence (P55212 24-193 limits assumed) with E12K

[5] = Ac-VEID-AFC hydrolysis kinetics of recombinant Casp6 variants (Michaelis-Menten); type: biochemical, human; conditions: Ac-VEID-AFC hydrolysis, mean ± SD
Text: In this study, we investigated how naturally occurring rare missense variants of human CASP6 affect Casp6 activity and structure. […] A34, E35, A109, and T182 are not conserved in 12 human caspases and in Casp6 from different species (Fig. 1a,b). Recombinant Casp6-WT and the four variants were expressed in E. coli, purified, and active site titrated (Fig. S2) for functional analyses. Like Casp6-WT, Casp6 variants, underwent complete self-processing at TETD23, and TEVD193 sites, and slight self-cleavage at the DVVD179 site, generating mainly large subunit with a linker (LS-L), small subunit (SS), and a minor amount of large subunit (LS) (Fig. 1c,d).
as §3

Molecule: O=C(Cn1cc(/C=C2/C(=O)NC(=O)N(Cc3ccco3)C2=O)c2ccccc21)NCC1CCCO1 (stereo not shown) [Compound S10]
% Inhibition with 100 µM compound (colorimetric assay) [1]: 42.6 ± 3.4% | % Inhibition with 100 µM compound (fluorescence assay) [2]: 59.7 ± 3.8% | IC50 [2]: 30.2 ± 6.8 µM

B1: Casp6-E35K, fully processed (mature, apo) (complex, human)
chain 1: T1 sequence (P55212 24-193 limits assumed) with E12K
chain 2: T1 sequence (P55212 194-293 limits assumed)
notes: human Caspase-6, large subunit with linker (LS-L) left after complete self-processing at TETD23 and TEVD193; a minor amount is also cut at DVVD179 (LS); rare natural SNP variant E35K; human Caspase-6, small subunit (SS) left after self-processing at TEVD193; One protomer (LS-L plus SS); two protomers form the dimer seen in the crystal; That the His tag sits on the small subunit is surmised from …
binding result [3]: binds

B2: Casp6 small subunit (SS) from self-processed Casp6 (domain or fragment, human, UniProt P55212 194-293, looked up)
chain: T1 sequence (P55212 194-293 limits assumed)
notes: human Caspase-6, small subunit (SS) left after self-processing at TEVD193; That the His tag sits on this chain is surmised from the plasmid's name; source: E. coli BL21(DE3)pLysS, self-processed from full-length Casp6 variant, purified
binding result [4]: binds

B3: Casp6-K284A: Casp6 K284A alanine mutant from full-length construct, partially self-processed (protein, UniProt P55212 1-293, looked up, variant K284A)
chain: MSSASGLRRGHPAGGEENMTETDAFYKREMFDPAEKYKMDHRRRGIALIFNHERFFWHLTLPERRGTCADRDNLTRRFSDLGFEVKCFNDLKAEELLLKIHEVSTVSHADADCFVCVFLSHGEGNHIYAYDAKIEIQTLTGLFKGDKCHSLVGKPKIFIIQACRGNQHDVPVIPLDVVDNQTEKLDTNITEVDAASVYTLPAGADFLMCYSVAEGYYSHRETVNGSWYIQDLCEMLGKYGSSLEFTELLTLVNRKVSQRRVDFCKDPSAIGKKQVPCFASMLTAKLHFFPKSN
modifications: full-length
notes: Casp6 K284A alanine mutant from full-length construct, partially self-processed
Km [5]: 32.6 ± 10.8 µM | kcat [5]: 2.0 ± 1.5 s⁻¹

Results, then the molecule that gave them:

% Inhibition with 100 µM compound (colorimetric assay) [1]: 41.9 ± 8.2% | % Inhibition with 100 µM compound (fluorescence assay) [2]: 33.8 ± 12.1% | IC50 [2]: 159 ± 27.7 µM
Molecule: Cc1nn(-c2ccccc2)c2c1C(c1cccc(OCc3ccccc3)c1)C(C#N)=C(N)O2 (stereo not shown) [Compound S13]

% Inhibition with 100 µM compound (colorimetric assay) [1]: 56.3 ± 2.3% | % Inhibition with 100 µM compound (fluorescence assay) [2]: 30.0 ± 6.0% | IC50 [2]: 289 ± 60.9 µM
Molecule: Nc1nc2c(s1)C(c1ccc(OCc3cccc(F)c3)cc1)CC(=O)N2 (stereo not shown) [Compound S11]
